Read-outs that look alike come from different tables or passages of the source.
Columns and labels:
Test in all cases: kinase profiling panel
Type in all cases: biochemical
Conditions in all cases: read-out: % Activity Remaining
GCK = target: T1, GCK (Homo sapiens, UniProt Q12851)
T1 sequence (Q12851 1-820): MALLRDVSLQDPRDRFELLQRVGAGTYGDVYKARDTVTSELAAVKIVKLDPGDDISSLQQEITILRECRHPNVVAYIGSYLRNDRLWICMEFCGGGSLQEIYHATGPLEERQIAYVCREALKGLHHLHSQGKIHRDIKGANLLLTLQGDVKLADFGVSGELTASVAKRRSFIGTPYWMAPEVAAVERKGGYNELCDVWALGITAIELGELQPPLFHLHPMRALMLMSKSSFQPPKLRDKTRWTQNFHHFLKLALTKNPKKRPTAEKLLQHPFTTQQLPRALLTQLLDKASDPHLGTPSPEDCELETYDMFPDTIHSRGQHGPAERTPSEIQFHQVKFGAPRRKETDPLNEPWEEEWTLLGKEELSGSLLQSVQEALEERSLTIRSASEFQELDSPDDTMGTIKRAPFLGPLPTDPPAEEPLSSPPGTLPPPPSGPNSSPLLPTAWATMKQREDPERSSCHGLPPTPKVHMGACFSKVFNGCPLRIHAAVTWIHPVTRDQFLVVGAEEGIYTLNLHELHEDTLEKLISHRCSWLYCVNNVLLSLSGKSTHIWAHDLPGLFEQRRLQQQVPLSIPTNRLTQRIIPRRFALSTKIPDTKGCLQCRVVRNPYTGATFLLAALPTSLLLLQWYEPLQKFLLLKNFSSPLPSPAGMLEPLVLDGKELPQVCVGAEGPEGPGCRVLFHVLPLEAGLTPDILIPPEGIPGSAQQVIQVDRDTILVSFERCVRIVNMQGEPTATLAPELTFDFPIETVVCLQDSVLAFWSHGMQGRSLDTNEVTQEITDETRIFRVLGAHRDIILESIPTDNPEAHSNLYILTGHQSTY
Excerpt: (§1) Protein kinase profiling against a Dundee panel of 140 protein kinases was undertaken at the International Centre for Protein Kinase Profiling. The result for each kinase was presented as a mean kinase activity of the reaction taken in triplicate relative to a control sample treated with DMSO. Assay conditions and abbreviations are available at http://www.kinase-screen.mrc.ac.uk.

HIPK1 = HIPK1 (Homo sapiens, UniProt Q86Z02)
Excerpt: as §1

IRAK1 = IRAK1 (Homo sapiens, UniProt P51617)
Excerpt: as §1

MAPKAP-K3 = MAPKAP-K3 (Homo sapiens, UniProt Q16644)
Sequence of MAPKAP-K3 (Q16644 whole entry): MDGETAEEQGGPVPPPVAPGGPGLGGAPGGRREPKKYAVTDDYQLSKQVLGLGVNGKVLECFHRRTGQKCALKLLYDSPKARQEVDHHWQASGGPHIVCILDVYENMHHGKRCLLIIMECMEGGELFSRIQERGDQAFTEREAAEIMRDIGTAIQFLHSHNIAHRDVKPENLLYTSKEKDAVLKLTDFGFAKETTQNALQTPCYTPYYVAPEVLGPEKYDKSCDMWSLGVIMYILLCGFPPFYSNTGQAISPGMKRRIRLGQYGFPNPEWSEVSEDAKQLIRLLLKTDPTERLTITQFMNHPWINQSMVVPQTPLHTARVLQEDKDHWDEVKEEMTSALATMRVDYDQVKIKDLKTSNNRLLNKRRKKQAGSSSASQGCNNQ
Excerpt: as §1

MPSK1 = MPSK1 (Homo sapiens, UniProt O75716)
Sequence of MPSK1 (O75716 whole entry): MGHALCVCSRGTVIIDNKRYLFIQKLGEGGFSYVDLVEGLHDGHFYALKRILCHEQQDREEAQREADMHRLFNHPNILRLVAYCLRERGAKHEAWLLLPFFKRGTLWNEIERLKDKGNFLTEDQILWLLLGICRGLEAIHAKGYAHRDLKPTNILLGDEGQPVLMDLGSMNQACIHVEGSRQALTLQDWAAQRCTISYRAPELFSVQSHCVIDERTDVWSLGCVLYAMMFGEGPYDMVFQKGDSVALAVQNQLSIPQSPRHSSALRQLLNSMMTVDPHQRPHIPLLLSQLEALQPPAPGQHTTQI
Excerpt: as §1

PAK6 = PAK6 (Homo sapiens, UniProt Q9NQU5)
Sequence of PAK6 (Q9NQU5 whole entry): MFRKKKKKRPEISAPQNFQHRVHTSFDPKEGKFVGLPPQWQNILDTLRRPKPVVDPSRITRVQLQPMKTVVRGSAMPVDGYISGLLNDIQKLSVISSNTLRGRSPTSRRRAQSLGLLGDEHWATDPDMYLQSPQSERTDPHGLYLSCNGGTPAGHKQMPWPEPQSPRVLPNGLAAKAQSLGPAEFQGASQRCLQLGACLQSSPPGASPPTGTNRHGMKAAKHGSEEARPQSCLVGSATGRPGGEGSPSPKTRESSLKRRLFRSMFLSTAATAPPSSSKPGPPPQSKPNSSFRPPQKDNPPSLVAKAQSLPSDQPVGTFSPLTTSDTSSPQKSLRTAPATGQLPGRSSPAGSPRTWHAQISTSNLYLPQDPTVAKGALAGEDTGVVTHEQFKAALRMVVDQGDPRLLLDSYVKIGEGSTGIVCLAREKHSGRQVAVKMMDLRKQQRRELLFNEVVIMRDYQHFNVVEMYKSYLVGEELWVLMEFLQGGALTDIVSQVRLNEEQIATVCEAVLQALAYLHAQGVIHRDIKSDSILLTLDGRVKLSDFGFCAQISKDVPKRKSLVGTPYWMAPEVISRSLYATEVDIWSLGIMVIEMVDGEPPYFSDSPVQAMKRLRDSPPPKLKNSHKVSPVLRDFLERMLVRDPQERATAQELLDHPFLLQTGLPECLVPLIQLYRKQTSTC
Excerpt: as §1

PIM1 = PIM1 (Homo sapiens, UniProt P11309)
Sequence of PIM1 (P11309 whole entry): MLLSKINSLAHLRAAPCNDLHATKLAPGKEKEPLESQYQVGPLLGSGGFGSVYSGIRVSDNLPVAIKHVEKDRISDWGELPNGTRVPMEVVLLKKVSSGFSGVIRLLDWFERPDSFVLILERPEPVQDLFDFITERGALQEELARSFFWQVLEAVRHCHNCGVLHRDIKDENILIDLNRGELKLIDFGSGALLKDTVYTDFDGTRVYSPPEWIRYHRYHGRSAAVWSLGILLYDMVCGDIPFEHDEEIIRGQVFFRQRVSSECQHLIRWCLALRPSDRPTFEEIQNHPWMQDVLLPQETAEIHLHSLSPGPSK
Excerpt: as §1

PKB alpha = PKB alpha (Homo sapiens, UniProt P31749)
Sequence of PKB alpha (P31749 whole entry): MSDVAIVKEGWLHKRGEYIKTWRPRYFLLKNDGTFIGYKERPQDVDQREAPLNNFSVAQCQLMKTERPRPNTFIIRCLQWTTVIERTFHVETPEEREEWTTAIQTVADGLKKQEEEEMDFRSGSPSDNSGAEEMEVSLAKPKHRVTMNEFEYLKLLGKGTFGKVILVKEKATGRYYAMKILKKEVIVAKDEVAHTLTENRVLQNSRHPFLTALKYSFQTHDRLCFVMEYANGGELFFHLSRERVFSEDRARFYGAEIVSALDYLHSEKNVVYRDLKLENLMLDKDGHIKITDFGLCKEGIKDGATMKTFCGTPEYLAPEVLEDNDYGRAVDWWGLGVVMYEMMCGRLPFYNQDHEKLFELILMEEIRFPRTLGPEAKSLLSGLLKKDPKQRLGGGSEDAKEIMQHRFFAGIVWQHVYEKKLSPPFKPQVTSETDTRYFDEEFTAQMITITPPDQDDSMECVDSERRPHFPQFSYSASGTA
Excerpt: as §1

PKC alpha = PKC alpha (Homo sapiens, UniProt P17252)
Excerpt: as §1

PLK1 = PLK1 (Homo sapiens, UniProt P53350)
Sequence of PLK1 (P53350 whole entry): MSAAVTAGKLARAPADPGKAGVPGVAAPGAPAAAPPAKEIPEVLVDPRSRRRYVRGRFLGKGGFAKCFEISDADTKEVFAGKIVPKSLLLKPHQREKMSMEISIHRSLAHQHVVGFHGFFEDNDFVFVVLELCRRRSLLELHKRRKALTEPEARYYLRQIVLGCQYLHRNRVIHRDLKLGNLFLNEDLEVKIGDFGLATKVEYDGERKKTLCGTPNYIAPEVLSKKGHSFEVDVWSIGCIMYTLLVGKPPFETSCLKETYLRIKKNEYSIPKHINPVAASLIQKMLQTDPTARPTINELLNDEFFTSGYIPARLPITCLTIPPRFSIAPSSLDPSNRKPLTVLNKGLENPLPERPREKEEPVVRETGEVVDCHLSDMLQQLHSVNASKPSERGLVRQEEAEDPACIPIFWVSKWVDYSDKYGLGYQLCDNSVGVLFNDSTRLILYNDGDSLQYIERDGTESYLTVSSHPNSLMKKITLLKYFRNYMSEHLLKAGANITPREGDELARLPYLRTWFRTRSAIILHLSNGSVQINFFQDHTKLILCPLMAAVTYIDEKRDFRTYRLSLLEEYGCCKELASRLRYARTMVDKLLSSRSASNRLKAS
Excerpt: as §1

SIK2 = SIK2 (Homo sapiens, UniProt Q9H0K1)
Sequence of SIK2 (Q9H0K1 whole entry): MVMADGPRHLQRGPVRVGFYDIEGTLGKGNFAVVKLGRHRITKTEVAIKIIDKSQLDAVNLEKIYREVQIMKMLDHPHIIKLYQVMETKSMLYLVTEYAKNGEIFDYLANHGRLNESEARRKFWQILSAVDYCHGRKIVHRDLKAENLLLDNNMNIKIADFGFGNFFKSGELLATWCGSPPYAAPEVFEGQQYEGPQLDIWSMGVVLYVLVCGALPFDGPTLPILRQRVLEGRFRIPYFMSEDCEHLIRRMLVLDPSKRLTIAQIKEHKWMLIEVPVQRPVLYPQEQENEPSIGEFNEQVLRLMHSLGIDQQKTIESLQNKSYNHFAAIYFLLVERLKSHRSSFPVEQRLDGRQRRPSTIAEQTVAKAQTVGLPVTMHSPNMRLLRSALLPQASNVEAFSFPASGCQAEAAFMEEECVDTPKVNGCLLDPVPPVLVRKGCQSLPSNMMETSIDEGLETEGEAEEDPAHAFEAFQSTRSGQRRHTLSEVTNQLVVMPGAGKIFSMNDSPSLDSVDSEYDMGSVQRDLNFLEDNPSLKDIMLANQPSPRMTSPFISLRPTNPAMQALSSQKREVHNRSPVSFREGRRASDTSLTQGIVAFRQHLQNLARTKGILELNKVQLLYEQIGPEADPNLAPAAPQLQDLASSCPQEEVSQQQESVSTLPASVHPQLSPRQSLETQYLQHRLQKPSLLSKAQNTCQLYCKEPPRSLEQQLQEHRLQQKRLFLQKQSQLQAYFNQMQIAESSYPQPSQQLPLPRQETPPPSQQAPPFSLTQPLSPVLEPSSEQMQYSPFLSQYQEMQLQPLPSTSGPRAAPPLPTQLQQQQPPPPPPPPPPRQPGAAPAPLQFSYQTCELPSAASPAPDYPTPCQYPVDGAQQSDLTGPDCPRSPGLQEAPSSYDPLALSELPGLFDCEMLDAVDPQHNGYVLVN
Excerpt: as §1

TESK1 = TESK1 (Homo sapiens, UniProt Q15569)
Sequence of TESK1 (Q15569 whole entry): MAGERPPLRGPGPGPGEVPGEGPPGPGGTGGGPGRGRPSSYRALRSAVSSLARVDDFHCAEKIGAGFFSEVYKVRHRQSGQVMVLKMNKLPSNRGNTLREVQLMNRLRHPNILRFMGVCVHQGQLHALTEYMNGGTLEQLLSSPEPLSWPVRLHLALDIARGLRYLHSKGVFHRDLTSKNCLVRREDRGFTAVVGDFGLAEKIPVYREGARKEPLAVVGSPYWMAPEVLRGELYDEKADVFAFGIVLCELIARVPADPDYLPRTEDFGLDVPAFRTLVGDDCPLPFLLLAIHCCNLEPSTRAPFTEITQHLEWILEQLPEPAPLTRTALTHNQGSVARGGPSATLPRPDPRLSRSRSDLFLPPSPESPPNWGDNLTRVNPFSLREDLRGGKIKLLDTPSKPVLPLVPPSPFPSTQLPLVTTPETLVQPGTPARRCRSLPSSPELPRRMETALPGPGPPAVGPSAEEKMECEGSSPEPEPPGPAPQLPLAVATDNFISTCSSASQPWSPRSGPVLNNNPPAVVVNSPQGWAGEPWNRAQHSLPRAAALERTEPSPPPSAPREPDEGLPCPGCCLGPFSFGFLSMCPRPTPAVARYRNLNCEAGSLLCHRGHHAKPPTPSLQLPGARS
Excerpt: as §1

TrkA = TrkA (Homo sapiens, UniProt P04629)
Excerpt: as §1

p38 gamma MAPK = target: T2, p38 gamma MAPK (Homo sapiens, UniProt P53778)
T2 sequence (P53778 1-367): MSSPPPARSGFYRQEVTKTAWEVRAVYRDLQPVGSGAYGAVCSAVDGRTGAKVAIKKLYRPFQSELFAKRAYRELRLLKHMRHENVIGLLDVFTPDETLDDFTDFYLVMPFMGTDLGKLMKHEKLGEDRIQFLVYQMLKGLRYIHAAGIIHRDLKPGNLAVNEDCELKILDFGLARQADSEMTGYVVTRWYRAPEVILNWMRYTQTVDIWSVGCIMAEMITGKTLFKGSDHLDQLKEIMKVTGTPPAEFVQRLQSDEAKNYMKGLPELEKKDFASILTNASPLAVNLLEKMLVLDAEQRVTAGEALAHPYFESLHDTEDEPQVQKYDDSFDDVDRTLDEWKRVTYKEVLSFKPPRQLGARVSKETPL
Excerpt: as §1

| SMILES | remaining activity at 1 µM (GCK) | remaining activity at 1 µM (HIPK1) | remaining activity at 1 µM (IRAK1) | remaining activity at 1 µM (MAPKAP-K3) | remaining activity at 1 µM (MPSK1) | remaining activity at 1 µM (PAK6) | remaining activity at 1 µM (PIM1) | remaining activity at 1 µM (PKB alpha) | remaining activity at 1 µM (PKC alpha) | remaining activity at 1 µM (PLK1) | remaining activity at 1 µM (SIK2) | remaining activity at 1 µM (TESK1) | remaining activity at 1 µM (TrkA) | remaining activity at 1 µM (p38 gamma MAPK) | remaining activity at 1 µM (GCK; 1 µM) | remaining activity at 1 µM (HIPK1; 1 µM) | remaining activity at 1 µM (IRAK1; 1 µM) | remaining activity at 1 µM (MAPKAP-K3; 1 µM) | remaining activity at 1 µM (MPSK1; 1 µM) | remaining activity at 1 µM (PAK6; 1 µM) | also measured |
| --- | --- | --- | --- | --- | --- | --- | --- | --- | --- | --- | --- | --- | --- | --- | --- | --- | --- | --- | --- | --- | --- |
| COc1ccc(Cl)c(S(=O)(=O)Nc2ccc(-c3nc(OC[C@H]4CNCCO4)c4c(C)n[nH]c4n3)cc2)c1 [290-R, reference compound] | 90% | 117% | 93% | 105% | 82% | 94% | 83% | 49% | 113% | 102% | 91% | 77% | 104% | 112% | – | – | – | – | – | – | – |
| Cc1ccc(F)c(S(=O)(=O)Nc2ccc(-c3nc(OC[C@H]4CNCCO4)c4cn[nH]c4n3)cc2)c1 [308-R, reference compound] | 80% | 73% | 88% | 83% | 116% | 80% | 104% | 96% | 135% | 86% | 55% | 69% | 71% | 111% | – | – | – | – | – | – | – |
| Cc1ccc(F)c(S(=O)(=O)Nc2ccc(-c3nc(OC[C@H]4CN(CCCCCCOCCOCCOCC(=O)N[C@H](C(=O)N5C[C@H](O)C[C@H]5C(=O)NCc5ccc(-c6scnc6C)cc5)C(C)(C)C)CCO4)c4cn[nH]c4n3)cc2)c1 [SGK3-PROTAC1] | – | – | – | – | – | – | – | – | – | – | – | – | – | – | 99% | 135% | 98% | 79% | 127% | 98% | remaining activity at 1 µM (PIM1; 1 µM): 94%; remaining activity at 1 µM (PKB alpha; 1 µM): 105%; remaining activity at 1 µM (PKC alpha; 1 µM): 121%; remaining activity at 1 µM (PLK1; 1 µM): 98%; remaining activity at 1 µM (SIK2; 1 µM): 95%; remaining activity at 1 µM (TESK1; 1 µM): 122%; remaining activity at 1 µM (TrkA; 1 µM): 112%; remaining activity at 1 µM (p38 gamma MAPK; 1 µM): 107% |
| Cc1ccc(F)c(S(=O)(=O)Nc2ccc(-c3nc(OC[C@H]4CN(CCCCCCOCCOCCOCC(=O)N[C@H](C(=O)N5C[C@@H](O)C[C@H]5C(=O)NCc5ccc(-c6scnc6C)cc5)C(C)(C)C)CCO4)c4cn[nH]c4n3)cc2)c1 [cisSGK3-PROTAC1] | – | – | – | – | – | – | – | – | – | – | – | – | – | – | 96% | 126% | 105% | 77% | 139% | 99% | remaining activity at 1 µM (PIM1; 1 µM): 97%; remaining activity at 1 µM (PKB alpha; 1 µM): 117%; remaining activity at 1 µM (PKC alpha; 1 µM): 118%; remaining activity at 1 µM (PLK1; 1 µM): 98%; remaining activity at 1 µM (SIK2; 1 µM): 94%; remaining activity at 1 µM (TESK1; 1 µM): 120%; remaining activity at 1 µM (TrkA; 1 µM): 102%; remaining activity at 1 µM (p38 gamma MAPK; 1 µM): 127% |

Reference: PMC6757289, “Design and Characterization of SGK3-PROTAC1, an Isoform Specific SGK3 Kinase PROTAC Degrader” (ACS Chemical Biology, 2019)
